Residues, ends and D or L forms follow the SMILES beside them. *: point of attachment. AFC = O=c1cc(C(F)(F)F)c2ccc(N*)cc2o1; MeOSuc = COC(=O)CCC(=O)*; Cbz = O=C(OCc1ccccc1)*
Legend:
Format in all cases: biochemical
[1] = tested on: purified Taenia solium cysteine protease; assay: Competitor assay of low Vmax substrates (vehicles) against high Vmax substrate cocktails (Step III), purified protease; settings: purified protease; for inhibition in the presence of the 1.4% cocktail: 1.4% cocktail = Z-FR-AFC 1X10^-6M; for inhibition with the final cocktail (7.4%): 7.4% cocktail = Z-FR-AFC + Z-FAR-AFC + Z-AAK-AFC + AP-AFC + Z-VLR-AFC, 1X10^-6 M each, vehicle 8X10^-6 M
Method: (We employed "Vmax" here although Kcat could also be used). Due to the lower number of substrates, a percentage was not chosen for the "BOTTOM %" " substrates. Alternately, all substrates which were not cleaved as determined by a value of 10 uM/hr or less, were chosen to be tested in this step for competitive ability. From this point forth, the term "vehicle" will represent low Vmax substrates that were capable of inhibiting cleavage of the percent cocktails. In this instance, we tested for "vehicles" which inhibited cleavage of the TOP 1.4% cocktail (they were delivered into the active site). Based upon our results from Step II, the top 1.4% cocktail was composed of Z-Phe-Arg-AFC, the highest cleaved substrate.
(§1) The experiment began with a competitor test between the noncleaved low Vmax substrates and the highest Vmax substrate, Z-Phe-Arg-AFC. Concentrations were varied between the low Vmax substrate and Z-Phe-Arg-AFC, as described above under "refinement of assay" until a relative inhibition profile was obtained.
The mixture was allowed to equilibrate for a period of 30 minutes. Finally, active purified enzyme was added to the tubes at a concentration which was always 50 times less than the concentration of the high and low Vmax substrates, in order to insure saturation conditions. This concentration varied from purification to purification and the amount added depended upon the yield and specific activity of the purified protease.
Positive controls were set up similarly as described for test controls, except that solvent was added in substitution for the low Vmax substrate (in a volume equal to the low Vmax volume addition). All of the substrates could be dissolved in dimethylsulfoxide (DMSO), and therefore, this was the solvent of choice. Negative controls were set up by adding the low Vmax and the high Vmax substrate in a tube without the protease. All potential non-proteolytic induced liberation of AFC was therefore controlled for in this tube (a feature which also insured stability of the AFC substrates, since these substrates will freely liberate AFC when unstable). A tube set will be established for this negative control.
All controls were set up in triplicate, and experiments repeated a minimum of five times. The assays were incubated at 37°C, for 18 hours overnight.
(§2) Percent inhibition was calculated as: %Inhibition =; ((AFC positive for"Y"-AFC negative for"Y")-(AFC test-AFC negative for"Y")X100)/(AFC positive for "Y"-AFC negative for "Y") [formula]
A 2.9% cocktail of the high Vmax substrates was made. This was composed of Z-FR-AFC and the second most cleaved substrate, Z-FAR-AFC. The vehicles promoted from the initial screenings above were again tested for competitive inhibition ability with the new cocktails. Their concentrations were set identically to those which were "fixed" in the previous protocols. In other words, 8X10^-6M of the vehicle was added to the culture tube with 1X10^-6 M of Z-FR-AFC and 1X10^-6 M of Z-FAR-AFC. Active protease was added last at a concentration that was 50 times less than the concentration of the high Vmax substrate (to ensure saturating conditions).
In similar experimental fashion, a 4.4%, 5.9%, and 7.4% cocktail were tested with each of the promising vehicles. Each percentage point represented an increase by one substrate. Each of the individual components in the cocktail were added at 1X10^-6 M each, to 8X10^-6 M of the vehicle. The composition of the cocktails was as follows: 4.4% cocktail: Z-FR-AFC, Z-FAR-AFC, and Z-AAK-AFC (third highest cleaved substrate); 5.9% cocktail: Z-FR-AFC, Z-FAR-AFC, Z-AAK-AFC, and AP-AFC (fourth highest cleaved substrate); 7.4% cocktail: […], Z-FAR-AFC, Z-AAK-AFC, AP-AFC, and Z-VLR-AFC. We stopped at this number of substrates in the cocktail, since confidence was obtained that inhibitory potential of vehicles could be "diluted out."
Finally, a manageable set of candidate vehicles was determined. […]

Taenia solium crude mix = assay: Competitor assay of vehicles against high Vmax substrate cocktails (Step III), crude mix
Method: Step III for a crude mix proceeds it would for a purified protease, except that Vm is used instead of kcat.
as §1, §2
One of the most intriguing findings in this experiment was that a highly similar inhibition pattern for the competitor assay was noted when the crude mix was employed as the source of the target protease. Although there were some variations in the effects of inhibitor dilution, the most highly ranked vehicles remained inhibitory consistently in comparison to the profile with the target protease. The relative profile and composition of the top tiers of vehicles was identical. Z-LLL-AFC, Z-LLY-AFC, Mu-LY-AFC, Boc-VPR-AFC, Z-SY-AFC, Z-RR-AFC, Z-FLF-AFC, Z-LGR-AFC consistently presented as the top eight vehicles (Fig. 5b), respectively, based upon their V values (Table 2). […] It was notable that the three vehicles had very similar V values. […] As was mentioned, this vehicle along with Z-LLL-AFC and Z-LLY-AFC, were consistently the most inhibitory vehicles. The V values of the most inhibitory vehicle series are shown below in Table 2. Again, a clear break between the first and second tier vehicles could be noted with the V value. Table 2. Vehicles and V value rankings.

[2] = tested on: purified Taenia solium cysteine protease; assay: Substrate cleavage screen of AFC-linked synthetic substrates (Step II), purified protease; settings: 1 ug purified protease, 1 ug substrate, Citrate pH 4.9 with 0.01 M cysteine, 18 h, 37 °C
Method: In this step, the most efficacious substrate for detection of the cysteine protease (high Kcat substrate) was determined in vitro along with those substrates which were not well cleaved (low kcat substrates). From this point forth, the following conditions refer to all assays: "assay buffer" refers to 0.4 M Citrate, pH 4.9 (the pH optima of the protease). Incubation time was 18 hours at 37°C. These conditions were determined by our preliminary data to be best for kinetic evaluation of the protease. […] The experiments were conducted in […] Borosilicate mini-culture tubes (Fisher Scientific), and a fluorometer (Turner) was employed for detection of AFC cleavage.
Approximately 1 ug (or a proteolytically detectable amount) of the purified target cysteine protease was incubated individually, with 1 ug of each of the available substrates in 500 uL of assay buffer. During this setup, the substrate was pre-incubated in the assay buffer for a short period of time (20 minutes) in order to reach an equilibrated status before the addition of the protease. Cleavage assessments were based upon the property of the protease to cleave synthetic peptide substrates linked at the C-terminus to 7-Amino-4-Trifluoromethyl Coumarin (AFC) as previously described. AFC linked tripeptides, dipeptides, and monopeptides, (with a variety of permutations at P3-P1) were available from Enzyme Systems Products (Livermore, CA), and were used as the source of the subset. Following incubation of enzyme preparations overnight (18 h, 37 °C) with peptide in assay buffer (Citrate, pH 4.9, supplemented with 0.01 M cysteine), free AFC concentrations were measured fluorometrically (excitation 405 nm, emission 505 nm). The proteolytic cleavage released the AFC group, which was measurable as a free molecule by a standard fluorometer and converted into molar quantities, based upon a previously established standard curve. The simplicity of AFC detection by the fluorometer was a key factor which quickened and simplified the procedures.
In the assay, 1 ug of the purified Taenia cysteine protease was added to a saturating amount of Z-Phe-Arg-AFC (4X10^-5 M) in assay buffer. The experiment was conducted in triplicate and repeated at least 5 times until we were certain that variability in AFC cleavage was not statistically significant.
Vmax was calculated for the cleavage of substrates by the purified target protease and Vmax was calculated for substrates cleaved by the crude mix protease using conventional kinetic modeling calculations already described in the art.

Structure (SMILES)	inhibition in the presence of the 1.4% cocktail ([1]; vehicle 8X10^-6M)	inhibition with the final cocktail (7.4%) [1]	cleavage of AFC-linked substrate (Vmax) [2]	other results
CC(C)C[C@H](NC(=O)OCc1ccccc1)C(=O)N[C@@H](CCCNC(=N)N)C(=O)N[C@@H](CCCNC(=N)N)C(=O)Nc1ccc2c(C(F)(F)F)cc(=O)oc2c1 [Z-LRR-AFC] (Cbz-Leu-Arg-Arg-{AFC})	greater than 20%			
N=C(N)NCCC[C@H](NC(=O)OCc1ccccc1)C(=O)N[C@@H](CCCNC(=N)N)C(=O)Nc1ccc2c(C(F)(F)F)cc(=O)oc2c1 [Z-RR-AFC] (Cbz-Arg-Arg-{AFC})		less than 20%		V Value ([1]; V = P * M, P = inhibition with first (1.4%) cocktail, M = inhibition with last (7.4%) cocktail, vehicle 8X10^-6M, each cocktail substrate 1X10^-6 M): 0.09; Tier (Taenia solium crude mix): 2 (The second tier was composed of those vehicles, which produced inhibition between 20-50% inhibition when in the presence of the 1.4% cocktail); V Value (Taenia solium crude mix; V = P * M): 0.09
N[C@@H](CCC(=O)O)C(=O)N[C@@H](Cc1ccc(O)cc1)C(=O)Nc1ccc2c(C(F)(F)F)cc(=O)oc2c1 [EY-AFC, reference compound] (H-Glu-Tyr-{AFC})			not cleaved	
COC(=O)CCC(=O)N[C@@H](Cc1ccccc1)C(=O)N[C@@H](CC(C)C)C(=O)N[C@@H](Cc1ccccc1)C(=O)Nc1ccc2c(C(F)(F)F)cc(=O)oc2c1 [MeoSuc-FLF-AFC, reference compound] (MeOSuc-Phe-Leu-Phe-{AFC})			not cleaved	
CC(C)C[C@H](NC(=O)OCc1ccccc1)C(=O)NCC(=O)N[C@@H](CCCNC(=N)N)C(=O)Nc1ccc2c(C(F)(F)F)cc(=O)oc2c1 [Z-LGR-AFC, Z-Leu-Gly-Arg-AFC] (Cbz-Leu-Gly-Arg-{AFC})	greater than 20%	less than 20%	noncleavable	

From patent publication EP1276895B1, “METHOD FOR THE IDENTIFICATION OF ACTIVE SITE PROTEASE INACTIVATORS” (THE UNIVERSITY OF GEORGIA RESEARCH FOUNDATION, INC., priority 2000, dated 2001)
